ChEMBL document CHEMBL4665641, “Lead optimization and efficacy evaluation of quinazoline-based BET family inhibitors for potential treatment of cancer and inflammatory diseases” (Bioorg Med Chem Lett, 2019)

Experiments:
[1] = tested on: Mus musculus; test: (§1) Antiinflammatory activity in collagen/complete freund's adjuvant-induced arthritis DBA/1 mouse model assessed as TNF-alpha level in rear right paw at 1 mg/kg, po administered via gavage starting from day 21 to day 41 post collagen/CFA challenge and measured on day 42 measured per mg protein (reference value: 0.88 pg); type: functional; conditions: time 21 day
[2] = tested on: Mus musculus; test: as §1, with “IFN-gamma” for “TNF-alpha”, “0.78” for “0.88”; type: functional; conditions: time 21 day
[3] = Toxicity in collagen/CFA induced arthritis DBA/1 mouse model assessed as body weight loss at 1 mg/kg, po administered via gavage starting from day 21 to day 41 post collagen/CFA challenge and measured on day 0, 18, 21 followed by three times weekly up to 42 days; type: organism-based; conditions: in vivo, 504 h, time 21 day
[4] = tested on: Mus musculus; test: as §1, with “IL-1 beta” for “TNF-alpha”, “3.15” for “0.88”; type: functional; conditions: time 21 day
[5] = tested on: Mus musculus; test: as §1, with “IP-10” for “TNF-alpha”, “6.23” for “0.88”; type: functional; conditions: time 21 day
[6] = tested on: Mus musculus; test: as §1, with “IL-6” for “TNF-alpha”, “180.7” for “0.88”; type: functional; conditions: time 21 day
[7] = tested on: Mus musculus; test: as §1, with “VEGF” for “TNF-alpha”, “0.98” for “0.88”; type: functional; conditions: time 21 day
[8] = tested on: Mus musculus; test: as §1, with “IL-2” for “TNF-alpha”, “0.2” for “0.88”; type: functional; conditions: time 21 day
[9] = tested on: Mus musculus; test: as §1, with “MCP-1” for “TNF-alpha”, “126.24” for “0.88”; type: functional; conditions: time 21 day
[10] = tested on: Mus musculus; test: Antiarthritic activity in collagen/complete freund's adjuvant-induced arthritis DBA/1 mouse model assessed as paw thickness at 1 mg/kg, po administered via gavage starting from day 21 to day 41 post collagen/CFA challenge and measured on day 21 by caliper analysis (reference value: 2.48 millimeter); type: functional; conditions: time 21 day
[11] = Toxicity in collagen/CFA induced arthritis DBA/1 mouse model assessed as body weight at 1 mg/kg, po administered via gavage starting from day 21 to day 41 post collagen/CFA challenge and measured on day 21 relative to initial weight (reference value: 94.96%); type: organism-based; conditions: in vivo, 504 h, time 21 day
[12] = target: T1, Bromodomain-containing protein 4 (Homo sapiens, UniProt O60885); test: Competitive binding affinity to human partial length BRD4 (BD1,2) (N44 to E460 residues) expressed in bacterial expression system by BROMOscan assay
[13] = Half life in CD-1 mouse at 2 mg/kg, iv; type: ADME, organism-based; conditions: in vivo
[14] = tested on: Kasumi 1; test: Antitumor activity against human Kasumi-1 cells xenografted in CB17 SCID mouse assessed as tumor volume at 40 mg/kg, po QD for 25 days (reference value: 2189 +/- 604 mm3); type: functional; conditions: time 25 day
[15] = Stability in mouse liver microsomes assessed as half life; type: ADME, Microsome
[16] = Drug uptake in tumor tissue of CB17 SCID mouse xenografted with human Kasumi-1 cells at 10 mg/kg, po QD for 25 days and measured after 24 hrs post last dose; type: ADME, organism-based, Neoplasm; conditions: time 25 day, read-out: Drug uptake
[17] = tested on: Kasumi 1; test: Antitumor activity against human Kasumi-1 cells xenografted in CB17 SCID mouse assessed as inhibition of tumor growth at 10 mg/kg, po QD for 25 days; type: functional; conditions: Kasumi 1, po, 600 h, time 25 day, read-out: TGI
[18] = Cmax in CD-1 mouse at 10 mg/kg, po; type: ADME, organism-based; set-up: route oral, dose 10 mg/kg; conditions: CD-1, mouse, in vivo, read-out: Cmax
[19] = Plasma clearance in CD-1 mouse at 2 mg/kg, iv; type: ADME, organism-based
[20] = tested on: Kasumi 1; test: Antitumor activity against human Kasumi-1 cells xenografted in CB17 SCID mouse assessed as tumor volume at 10 mg/kg, po QD for 25 days (reference value: 2189 +/- 604 mm3); type: functional; conditions: time 25 day
[21] = tested on: Kasumi 1; test: Antitumor activity against human Kasumi-1 cells xenografted in CB17 SCID mouse assessed as tumor weight at 10 mg/kg, po administered for 25 days (reference value: 2.57 +/- 0.27 g); type: functional; conditions: time 25 day
[22] = Volume of distribution at steady state in CD-1 mouse at 2 mg/kg, iv; type: ADME, organism-based; conditions: in vivo, read-out: Vdss
[23] = Half life in CD-1 mouse at 10 mg/kg, po; type: ADME, organism-based; conditions: in vivo
[24] = AUC(0 to infinity) in CD-1 mouse at 2 mg/kg, iv; type: ADME, organism-based; set-up: time infinity, route intravenous, dose 2 mg/kg; conditions: CD-1, mouse, in vivo
[25] = tested on: MV4-11; test: Cytotoxicity against human MV4-11 cells assessed as inhibition of cell viability; type: functional, cell-based
[26] = Stability in human liver microsomes assessed as half life; type: ADME, Microsome
[27] = Drug uptake in tumor tissue of CB17 SCID mouse xenografted with human Kasumi-1 cells at 40 mg/kg, po QD for 25 days and measured after 24 hrs post last dose; type: ADME, organism-based, Neoplasm; conditions: time 25 day, read-out: Drug uptake
[28] = Toxicity in CB17 SCID mouse xenografted with human Kasumi-1 cells assessed body weight loss at 10 to 40 mg/kg, po QD for 25 days; type: organism-based; conditions: in vivo, 600 h, dose 10-40 mg/kg, time 25 day
[29] = target: T1, Bromodomain-containing protein 4; test: Inhibition of human full-length recombinant N-terminal His-tagged BRD4 (2 to 1362 residues) expressed in Sf9 cells using histone H4 peptide containing acetylated lysine residues as substrate preincubated with enzyme for 30 mins followed by incubation with substrate for 30 mins by Alphascreen assay […]
[30] = AUC(0 to infinity) in CD-1 mouse at 10 mg/kg, po; type: ADME, organism-based; set-up: route oral, time infinity, dose 10 mg/kg; conditions: mouse, in vivo
[31] = tested on: Kasumi 1; test: Antitumor activity against human Kasumi-1 cells xenografted in CB17 SCID mouse assessed as tumor weight at 40 mg/kg, po QD for 25 days (reference value: 2.57 +/-0.27 g); type: functional; conditions: time 25 day
[32] = tested on: Kasumi 1; test: Antiproliferative activity against human Kasumi-1 cells after 72 hrs by Celltiter-Glo assay; type: functional, cell-based; conditions: Kasumi 1, 72 h
[33] = tested on: Kasumi 1; test: Antitumor activity against human Kasumi-1 cells xenografted in CB17 SCID mouse assessed as inhibition of tumor growth at 40 mg/kg, po QD for 25 days; type: functional; conditions: Kasumi 1, po, 600 h, time 25 day, read-out: TGI
[34] = Stability in rat liver microsomes assessed as half life; type: ADME, Microsome
[35] = Cmax in CD-1 mouse at 2 mg/kg, iv measured after 5 mins; type: ADME, organism-based; set-up: route intravenous, dose 2 mg/kg; conditions: mouse, in vivo, 5 min
[36] = Toxicity in CB17 SCID mouse xenografted with human Kasumi-1 cells assessed body weight loss at 40 mg/kg, po QD for 25 days; type: organism-based; conditions: in vivo, 600 h, time 25 day
[37] = tested on: Kasumi 1; test: Antitumor activity against human Kasumi-1 cells xenografted in CB17 SCID mouse assessed as tumor weight at 10 mg/kg, po QD for 29 days (reference value: 2.1+/- 0.3 g); type: functional; conditions: time 29 day
[38] = tested on: Kasumi 1; test: Antitumor activity against human Kasumi-1 cells xenografted in CB17 SCID mouse assessed as tumor volume at 10 mg/kg, po QD for 29 days (reference value: 1734 +/- 220 mm3); type: functional; conditions: time 29 day

C[C@@H]1C[C@H]2[C@@H]3CCC4=CC(=O)C=C[C@]4(C)[C@@]3(F)[C@@H](O)C[C@]2(C)[C@@]1(O)C(=O)CO [DEXAMETHASONE]
Activity [1]: 0.39 pg
Activity [2]: 1.5 pg
Activity [3]: Toxic
Activity [4]: 2.32 pg
Activity [5]: 0.86 pg
Activity [6]: 2.17 pg
Activity [7]: 0.85 pg
Activity [8]: 0.63 pg
Activity [9]: 1.99 pg
Activity [10]: 1.53 mm
Activity [11]: 92.74%

Cc1noc(C)c1-c1ccc2nc(-c3cnn(CC(C)(C)O)c3)nc(N3CCOC[C@@H]3C3CC3)c2c1
Kd [12]: 0.23 µM
half-life [13]: 1.5 h
Activity [14]: 51 mm3
t1/2 [15]: 1.7 h
concentration at 600 h [16]: 303 ng/g
inhibition in vivo at 10 mg/kg [17]: 49.1%
Cmax [18]: 2.04 µg/mL
clearance [19]: 0.606 L/h/kg
Activity [20]: 1001 mm3
Activity [21]: 1.31 g
Vd [22]: 1.28 L/kg
half-life [23]: 1.8 h
AUC(0-inf) [24]: 3.37 µg·h/mL
IC50 [25]: 1.66 µM
half-life [26]: 1.77 h
concentration at 600 h [27]: 4210 ng/g
Activity [28]: Non-Toxic
IC50 [29]: 0.076 µM
AUC [30]: 15.013 µg·h/mL
Activity [31]: 0.03 g
IC50 [32]: 0.52 µM
inhibition in vivo at 40 mg/kg [33]: 98.8%
half-life [34]: 0.55 h
Cmax [35]: 1.94 µg/mL

CCNC(=O)C[C@@H]1N=C(c2ccc(Cl)cc2)c2cc(OC)ccc2-n2c(C)nnc21 [MOLIBRESIB]
Activity [14]: 79 mm3
Activity [20]: 586 mm3
Activity [21]: 0.52 g
Activity [36]: Toxic
Activity [37]: 0.3 g
concentration at 600 h [27]: 16 ng/g
Activity [38]: 330 mm3
Activity [31]: 0.07 g
